For this assay, the system named is P388 leukemia ip, CD2F1 mice, survival T/C. Nature of the assay: NCI In Vivo Anticancer Drug Screen. Data for tumor model P388 Leukemia (intraperitoneal) in CD2F1 (CDF1) mice. The conditions noted are these: endpoint: median survival time, higher = longer survival. An outline of the steps:
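Mice carrying the transplanted tumor received test compound or vehicle. Survival was recorded in each group, and the value is the treated-group measurement divided by that of the vehicle-treated control group.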

Setting [1] is: dose: 50.0 mg/kg/injection, schedule: Q04DX003 (ip), vehicle: saline with Tween-80.
Where [2] appears, read: dose: 100.0 mg/kg/injection, schedule: Q01DX005 (ip), vehicle: Klucel (hydroxypropylcellulose) (HPC).
Where [3] appears, read: dose: 200.0 mg/kg/injection, schedule: Q01DX005 (ip), vehicle: Klucel (hydroxypropylcellulose) (HPC).
The mark [4] stands for this setting: dose: 60.0 mg/kg/injection, schedule: Q01DX005 (ip), vehicle: Klucel (hydroxypropylcellulose) (HPC).
[5] abbreviates: dose: 120.0 mg/kg/injection, schedule: Q01DX005 (ip), vehicle: Klucel (hydroxypropylcellulose) (HPC).
[6] abbreviates: dose: 60.0 mg/kg/injection, schedule: Q01DX005 (ip), vehicle: saline with Tween-80.
Setting [7] is: dose: 120.0 mg/kg/injection, schedule: Q01DX005 (ip), vehicle: saline with Tween-80.
Where [8] appears, read: dose: 50.0 mg/kg/injection, schedule: Q01DX009 (ip), vehicle: saline with Tween-80.
Where [9] appears, read: dose: 100.0 mg/kg/injection, schedule: Q01DX009 (ip), vehicle: saline with Tween-80.
The mark [10] stands for this setting: dose: 200.0 mg/kg/injection, schedule: Q01DX009 (ip), vehicle: saline with Tween-80.
Setting [11] is: dose: 6.25 mg/kg/injection, schedule: Q01DX009 (ip), vehicle: saline.
The mark [12] stands for this setting: dose: 12.5 mg/kg/injection, schedule: Q01DX009 (ip), vehicle: saline.
[13] abbreviates: dose: 50.0 mg/kg/injection, schedule: Q01DX009 (ip), vehicle: saline.

Values joined by “and” are separate entries in the source; they are usually repeats but may differ in a detail not shown here. Identical values can stand only once. Toxic doses and inconclusive results are not listed.

For `CCN(CC)c1ccc(/C=C/c2ccnc3ccccc23)cc1`, the T/C is 118 % of control (dose: 12.5 mg/kg/injection, schedule: Q01DX009 (ip), vehicle: saline with Tween-80); 100 % of control (dose: 12.5 mg/kg/injection, schedule: Q04DX003 (ip), vehicle: saline sonified); 90 % of control (dose: 12.5 mg/kg/injection, schedule: Q04DX003 (ip), vehicle: saline with Tween-80); 113 % of control (dose: 20.0 mg/kg/injection, schedule: Q04DX003 (ip), vehicle: saline); 104 % of control (dose: 25.0 mg/kg/injection, schedule: Q01DX009 (ip), vehicle: saline with Tween-80); 104 % of control (dose: 25.0 mg/kg/injection, schedule: Q04DX003 (ip), vehicle: saline sonified). The T/C (dose: 25.0 mg/kg/injection, schedule: Q04DX003 (ip), vehicle: saline with Tween-80) is 100 % of control; the T/C (dose: 40.0 mg/kg/injection, schedule: Q04DX003 (ip), vehicle: saline) is 118 % of control; the T/C (dose: 50.0 mg/kg/injection, schedule: Q04DX003 (ip), vehicle: saline sonified) was 109 % of control; the T/C under setting [1] is 109 % of control.
Take `O=NN(Cc1cccnc1)C(=O)NC1CCCCC1`: the T/C by setting is: (dose: 25.0 mg/kg/injection, schedule: Q01DX001 (ip), vehicle: distilled water + Tween-80) 109 % of control; (dose: 50.0 mg/kg/injection, schedule: Q01DX001 (ip), vehicle: distilled water + Tween-80) 98 % of control; (dose: 100.0 mg/kg/injection, schedule: Q01DX001 (ip), vehicle: distilled water + Tween-80) 100 % of control.
With `O=S(=O)(O)c1ccccc1P(c1ccccc1)c1ccccc1`, the T/C is, setting by setting: (dose: 50.0 mg/kg/injection, schedule: Q01DX005 (ip), vehicle: Klucel (hydroxypropylcellulose) (HPC)) 98 % of control; under setting [2], 94 % of control; under setting [3], 88 % of control.
As for `COc1cc(/C=C2\C(=O)C=C(C)CC2(C)C)ccc1O`, the T/C runs as follows: under setting [1], 95 % of control; (dose: 100.0 mg/kg/injection, schedule: Q04DX003 (ip), vehicle: saline with Tween-80) 90 % of control.
Consider `N#CCN(CC#N)CC#N`, for which the T/C was 104 % of control (dose: 1.56 mg/kg/injection, schedule: Q01DX009 (ip), vehicle: saline with Tween-80); 95 % of control (dose: 1.56 mg/kg/injection, schedule: Q04DX003 (ip), vehicle: saline with Tween-80); 90 % of control (dose: 3.13 mg/kg/injection, schedule: Q01DX009 (ip), vehicle: saline with Tween-80); 90 % of control (dose: 3.13 mg/kg/injection, schedule: Q04DX003 (ip), vehicle: saline with Tween-80); 109 % of control (dose: 6.25 mg/kg/injection, schedule: Q01DX009 (ip), vehicle: saline with Tween-80); 90 % of control (dose: 6.25 mg/kg/injection, schedule: Q04DX003 (ip), vehicle: saline with Tween-80).
Turning to `O=CNC(Cc1ccc(O)cc1)C(=O)O` (stereo not drawn), the T/C is, setting by setting: (dose: 12.5 mg/kg/injection, schedule: Q01DX005 (ip), vehicle: Klucel (hydroxypropylcellulose) (HPC)) 102 % of control and 105 % of control; (dose: 25.0 mg/kg/injection, schedule: Q01DX005 (ip), vehicle: Klucel (hydroxypropylcellulose) (HPC)) 100 % of control and 104 % of control; under setting [2], 101 % of control and 107 % of control; under setting [3], 96 % of control.
Consider `[CH3][Sn]([CH3])([Cl])[Cl].c1ccc(-c2nnc(-c3ccccn3)nc2-c2ccccc2)cc1`, for which the T/C runs as follows: under setting [4], 95 % of control; under setting [5], 94 % of control; (dose: 240.0 mg/kg/injection, schedule: Q01DX005 (ip), vehicle: Klucel (hydroxypropylcellulose) (HPC)) 89 % of control.
Consider `CC(C)(C)/[N+]([O-])=C/C=C(/C=[N+](\[O-])C(C)(C)C)S(=O)(=O)c1ccccc1`, for which the T/C runs as follows: under setting [6], 96 % of control; under setting [7], 90 % of control; (dose: 240.0 mg/kg/injection, schedule: Q01DX005 (ip), vehicle: saline with Tween-80) 90 % of control.
Turning to `COc1ccc(C(=O)c2c(C(=O)NOCCCc3ccccc3)[nH]c(=O)c(C#N)c2C(=O)NOCCCc2ccccc2)cc1`, the T/C was 102 % of control (dose: 30.0 mg/kg/injection, schedule: Q01DX005 (ip), vehicle: saline with Tween-80); 105 % of control under setting [6]; 109 % of control (dose: 60.0 mg/kg/injection, schedule: Q01DX005 (ip), vehicle: saline); 96 % of control under setting [7].
In the case of `Cc1ccc(S(=O)(=O)NCc2cccc(CNS(=O)(=O)c3ccc(C)cc3)c2)cc1`, the T/C was 104 % of control under setting [8], 89 % of control under setting [9] and 100 % of control under setting [10].
On to `Cc1cc[c]([Bi]([c]2ccc(C)cc2)[c]2ccc(C)cc2)cc1`, for which the T/C is, setting by setting: under setting [4], 105 % of control; under setting [5], 96 % of control.
In the case of `CS(=O)(=O)OCCN(CCOS(C)(=O)=O)c1ccc(C=Nc2ccc(-c3csc(Cc4ccccc4)n3)cc2)cc1`, the T/C under setting [11] is 115 % of control; the T/C under setting [12] is 110 % of control; the T/C (dose: 12.5 mg/kg/injection, schedule: Q01DX009 (ip), vehicle: suspension in saline) is 163 % of control; the T/C (dose: 25.0 mg/kg/injection, schedule: Q01DX009 (ip), vehicle: suspension in saline) is 164 % of control; the T/C under setting [13] is 153 % of control; the T/C (dose: 50.0 mg/kg/injection, schedule: Q01DX009 (ip), vehicle: suspension in saline) is 174 % of control.
`COC(=O)c1cnc(N)n1C`: the T/C (dose: 12.5 mg/kg/injection, schedule: Q01DX009 (ip), vehicle: distilled water + Tween-80) is 101 % of control.
With `CC1(Cl)CC(C)(/C=C/Cl)C(Br)CC1Cl` (stereo not drawn), the T/C is 91 % of control (dose: 41.5 mg/kg/injection, schedule: Q01DX005 (ip), vehicle: Klucel (hydroxypropylcellulose) (HPC)); 91 % of control (dose: 83.0 mg/kg/injection, schedule: Q01DX005 (ip), vehicle: Klucel (hydroxypropylcellulose) (HPC)); 100 % of control (dose: 166.0 mg/kg/injection, schedule: Q01DX005 (ip), vehicle: Klucel (hydroxypropylcellulose) (HPC)).
Turning to `C[C@]12CC[C@H](OC(=O)Cc3ccc(N(CCCl)CCCl)cc3)CC1CC[C@@H]1C2CC[C@]2(C)NC(=O)CCC12` (stereo partly drawn), the T/C was 195 % of control (dose: 50.0 mg/kg/injection, schedule: Q01DX001 (ip), vehicle: saline with Tween-80); 243 % of control and 294 % of control (dose: 100.0 mg/kg/injection, schedule: Q01DX001 (ip), vehicle: saline with Tween-80).
In the case of `COC1/C=C\C=C(/C)C(=O)NC2=CC(=O)C(NCCCl)=C(CC(C)CC(OC)C(O)C(C)/C=C(/C)C1OC(N)=O)C2=O` (stereo not drawn), the T/C reads like this: (dose: 1.5 mg/kg/injection, schedule: Q01DX009 (ip), vehicle: DMSO) 107 % of control; (dose: 3.0 mg/kg/injection, schedule: Q01DX009 (ip), vehicle: DMSO) 108 % of control; (dose: 3.12 mg/kg/injection, schedule: Q04DX002 (ip), vehicle: saline with Tween-80) 115 % of control; (dose: 5.0 mg/kg/injection, schedule: Q04DX002 (ip), vehicle: saline with Tween-80) 111 % of control; (dose: 6.0 mg/kg/injection, schedule: Q01DX009 (ip), vehicle: DMSO) 111 % of control; (dose: 6.25 mg/kg/injection, schedule: Q04DX002 (ip), vehicle: saline with Tween-80) 123 % of control. In addition, the T/C by setting is: (dose: 12.0 mg/kg/injection, schedule: Q01DX009 (ip), vehicle: DMSO) 117 % of control; (dose: 12.5 mg/kg/injection, schedule: Q04DX002 (ip), vehicle: saline with Tween-80) 119 % of control; (dose: 20.0 mg/kg/injection, schedule: Q04DX002 (ip), vehicle: saline with Tween-80) 122 % of control.
On to `CC(=O)N(O)c1ccc(S(N)(=O)=O)cc1`, for which the T/C under setting [8] was 113 % of control, the T/C under setting [9] was 100 % of control and the T/C under setting [10] was 98 % of control.
As to `CCCCCCCCCCCCCCCCCCOCC(COP(=O)([O-])OCC[N+](C)(C)C)OC` (stereo not drawn), the T/C (dose: 3.12 mg/kg/injection, schedule: Q01DX009 (ip), vehicle: saline) is 103 % of control; the T/C under setting [11] is 109 % of control; the T/C (dose: 12.5 mg/kg/injection, schedule: Q01DX005 (ip), vehicle: saline with Tween-80) was 109 % of control; the T/C under setting [12] was 107 % of control and 117 % of control; the T/C (dose: 25.0 mg/kg/injection, schedule: Q01DX009 (ip), vehicle: saline) is 122 % of control and 124 % of control; the T/C under setting [13] was 88 % of control.

(Values after PubChem BioAssay AID330 (DTP/NCI, 2004).)
